We go through one compound from article PMC9321043, “Synthesis, Structure–Activity Relationships, and Parasitological Profiling of Brussonol Derivatives as New Plasmodium falciparum Inhibitors” (Pharmaceuticals, 2022).

In assay [1] the test system is P. falciparum (3D7 strain). Kind of assay: In vitro antiplasmodial activity, P. falciparum blood-stage parasites, SYBR Green I. It is filed as cell-based, Plasmodium falciparum. Here is the method:
The P. falciparum strains were cultivated in human blood cells (hRBC) O^+, while P. knowlesi was cultivated in rhesus red blood cells (rRBC) as described. P. falciparum complete RPMI (consisting of RPMI-1640, supplemented with 0.2% NaHCO3, 25 mM HEPES (pH 7.4), 11 mM D-glucose, 10 mg/L hypoxanthine, 25 mg/L gentamicin, and 0.5% (m/v) AlbuMAX II). The parasitemias of these cultures were maintained below 10% with 2.5% hematocrit. P. knowlesi complete RPMI (consisting of RPMI-1640 supplemented with 25 mM HEPES, […] hypoxanthine, 0.26% NaHCO3, 10 mg/L gentamicin, and 1% Albumax II). This culture was maintained with RBCs up to 5% hematocrit. The culture medium was changed daily, and all cultures were maintained under a 90% N2/5% CO2/5% O2 gas mixture at 37 °C. All compounds were purchased from Sigma-Aldrich (Cotia, Brazil).
The antiplasmodial activity of brussonol and derivatives was evaluated against P. falciparum blood parasites 3D7(chloroquine-sensitive). The parasites were synchronized through sterile 5% (m/v) D-sorbitol treatment over 10 min at 37 °C for the enrichment of ring stages. Centrifugation 600× g over 5 min was used to pellet the cultures. The parasitemia was determined by microscope analysis of thin blood smears stained with Giemsa 10% (v/v) after fixation with methanol. The initial parasitemia was calculated for 1000 red blood cells (RBCs), and cultures were diluted to 0.5% parasitemia and 2% hematocrit by the addition of the appropriate volumes of blood and medium. A total of 180 µL aliquots of parasites were distributed into 96-well plates followed by the addition of 20 µL of previously prepared aliquots of ten-fold concentrated compounds, the range of concentrations tested was 10–1.53 µM. Negative and positive control wells, which correspond to non-parasitized erythrocytes and parasite cultures in the absence of compounds, were set in parallel. The DMSO concentration was maintained below 0.05% (v/v) for all compounds except for brussonol, which was 0.5%. The plates were incubated for 72 h at 37 °C in a humidified incubator with a gas mixture of 90% N2, 5% O2, and 5% CO2. Each test was performed in duplicates, and the results were compared with the control cultures. Once completed incubation, the culture medium was removed, and the cells were resuspended in 100 µL PBS (116 mM NaCl, 10 mM NaH2PO4, 3 mM KH2PO4) and lysed with 100 µL lysis buffer (20 mM Tris base, 5 mM EDTA, 0.0008% (v/v) Triton X-100, 0.008% (m/v) saponin, pH 8.0) containing 0.002% (v/v) SYBR Green I. Plates were incubated for 30 min at room temperature, and a SpectraMAX Gemini EM plate reader (Molecular Devices Corp., Sunnyvale, CA) was used to determine the fluorescence corresponding to parasitic density (excitation at 485 nm, emission at 535 nm). The half-maximal inhibitory concentration (IC50^Pf) was determined by non-linear regression analysis of the resulting concentration–response curve using the software GraphPad Prism version 8.0.1 for Windows, GraphPad Software, San Diego, California USA, www.graphpad.com, accessed on 3 March 2022”.

Assay [2] concerns P. falciparum Dd2 strain. Kind of assay: Resistance assessment, Dd2 strain. It is filed as cell-based. The note with it: Plasmodium falciparum.
In assay [3] the test system is P. falciparum TM90C6B strain. The experiment in a line: Resistance assessment, TM90C6B strain. Conditions: Plasmodium falciparum. It is filed as cell-based.
The subject of assay [4] is cytosolic Ca^2+ in P. falciparum. The experiment in a line: [Ca2+]cyt measurements in isolated parasites loaded with Fluo-4AM. It is filed as cell-based, Plasmodium falciparum. The protocol: One of the compounds identified in the structural similarity search was the cyclopiazonic acid (CPA) (Figure 8a). […] Because of that, brussonol activity on the modulation of the SERCA pump was investigated. To assess the effect of brussonol on calcium mobilization in P. falciparum intraerythrocytic stages, isolated parasites loaded with Fluo-4-AM were exposed to 10 μM brussonol in MOPS Ca^2+ buffer. […] To verify if the brussonol-elicited [Ca^2+]cyt increment originated from the endoplasmic reticulum (ER), targeting the PfSERCA pump, CPA was added before the addition of brussonol. […] In the brussonol-pretreated parasites, the addition of CPA still increased the cytosolic Ca^2 + level (30 ± 5 nM) (Figure 8d).
Isolated parasites were incubated for 1 h at 37 °C with 5 μM of Fluo-4AM in 1 mL MOPS buffer (116 mM NaCl, 5.4 mM KCl, 0.8 mM MgSO4, 5.5 mM D-glucose, 50 mM MOPS, and 2 mM CaCl2, pH 7.2), with 1 mM probenecid to minimize compartmentalization and extrusion of probe. The parasites were washed three times with the same buffer and transferred to a quartz cuvette. Intracellular calcium was measured continuously using a Hitachi F-7000 spectrofluorimeter (Tokyo, Japan) by measurement of the fluorescence (λex = 488 nm and λem = 530 nm) at 37 °C, under agitation. When indicated, 10 µM of cyclopiazonic acid (CPA) or 10 µM of brussonol were added to the cuvette. Maximal fluorescence (Fmax) was determined after the lysis of with digitonin 0.15% (m/v), and minimal fluorescence (Fmin) was determined by adding 25 mM EGTA in 3 M Tris, pH 8.8, until no further decrease in fluorescence was observed. The cytosolic calcium concentration ([Ca^2+]cyt) was calculated from the fluorescence data (F) using a Kd value of 345 nM using the formula:Ca^2 +cyt = 345 × [(F − Fmin)/(Fmax − F)]
The results (n = 2) were analyzed through One-Way ANOVA with Tukey post-test. All compounds described here were purchased from Sigma-Aldrich (verificar local).

Like-named read-outs stand apart in the source and are kept apart here.

By IC50 is commonly meant the midpoint of a concentration-inhibition curve.

On to `CC(C)c1cc2c(c(O)c1O)C[C@@]13CCCC(C)(C)[C@@H]1C[C@@H]2O3` [Compound 1, brussonol], for which the IC50 in assay [1] (3D7 strain, 72 h, SYBR Green I, read-out: IC50^Pf) was 16 ± 2 µM; in assay [1] (Plasmodium falciparum, 3D7, 3D7 strain, Table 2 strain panel, read-out: IC50), 13 ± 2 µM; in assay [1] (Plasmodium falciparum, 3D7, 72 h, 3D7 strain, 72 h, SYBR Green I, read-out: IC50^Pf), about 20 µM; in assay [2], 7 ± 2 µM; in assay [3], 7 ± 2 µM. In assay [4] (10 µM brussonol added after 10 µM CPA reached a plateau), the “[Ca^2+]cyt rise after CPA pretreatment” value amounted to 19 ± 8 nM. Further, the “[Ca^2+]cyt rise” value in assay [4] (10 µM compound alone, MOPS Ca^2+ buffer, relative to basal level) amounted to 19 ± 4 nM.
